# Values of other authors as cited in patent US20200172966A1 (YAMAGUCHI UNIVERSITY, priority 2015, published 2020).
# Conditions: patients identified as non-high-risk based on polymorphisms of the UGT1A gene; cited from earlier work
smiles,measurement,value
"CCc1c2c(nc3ccc(OC(=O)N4CCC(N5CCCCC5)CC4)cc13)-c1cc3c(c(=O)n1C2)COC(=O)[C@]3(O)CC [irinotecan, 1,4′-Bipiperidine-1′-carboxylic acid (S)-4,11-diethyl-3,4,12,14-tetrahydro-4-hydroxy-3,14-dioxo-1H-pyrano[3′,4′:6,7]indolizino[1,2-b]quinolin-9-yl ester]",patients with a side effect,43%
